The source of these data is US20160312292A1, “METHODS FOR TREATING HEMATOLOGICAL CANCERS AND THE USE OF BIOMARKERS AS A PREDICTOR OF CLINICAL SENSITIVITY TO IMMUNODULATORY THERAPIES” (CELGENE CORPORATION, priority 2013, published 2016).

“And” between values parts separate entries of the source, which are not always exact repeats. Identical values can stand only once. Some results are limits rather than exact numbers.

In the experiment the test system is refractory or relapsed diffuse large B-Cell lymphoma (DLBCL) patients. As to the kind of experiment: Clinical trial of lenalidomide in refractory or relapsed DLBCL patients: best response, PFS, OS. The experiment is classed as in vivo, human. The source says:
A clinical trial was formed with four arms, each arm containing 25 patients. One arm contained patients classified as presenting germinal center B-cell-like DLBCL subtypes receiving lenalidomide, a second arm contained patients classified as presenting germinal center B-cell-like DLBCL subtypes receiving another therapy selected by the investigator, a third arm contained patients classified as presenting activated B-cell-like DLBCL subtypes receiving lenalidomide, and a fourth arm contained patients classified as presenting activated B-cell-like DLBCL subtypes receiving another therapy selected by the investigator. The patients in the four arms of the clinical trial received treatment until disease progression.
For purposes of this exploratory analysis, a subset of the clinical data associated to each patient comprised the therapy arm, Revlimid (REV) or control drug (CON), and their corresponding response to the drug in both categorical variable {complete response (CR), partial response (PR), establish disease (SD), progression disease (PD) and Death} and continuous variables as progression free survival (PFS) and overall (OS), unit weeks. It also includes the predicted DLBCL sub-type (ABC/GCB) and other demographic data. […]

`Nc1cccc2c1CN(C1CCC(=O)NC1=O)C2=O` (centres unmarked) [lenalidomide, 3-(4-amino-1-oxo-1,3-dihydro-isoindol-2-yl)-piperidine-2,6-dione]: the “progression free survival (PFS)” value (individual Revlimid-arm DLBCL patients whose baseline FF profile had a non-zero estimated proportion of NK-cells) is 27 weeks and 31.9 weeks and 32.4 weeks and 85.3 weeks; the “progression free survival (PFS)” value (one lenalidomide-treated DLBCL patient with low B aIgM proportion who died shortly after starting treatment) is given as under 3 weeks.
